We go through two compounds from US20140135221A1, “Desiccant and Defoliant Composition for Crops” (NIHON NOHYAKU CO., LTD, priority 2011, published 2014).

The test system of this experiment is seed potatoes (variety: danshaku). The experiment in a line: Desiccation and defoliation effect on potted potato plants in greenhouse (Test Example 1). To be noted: potato foliage; for desiccation and defoliation effect, 4 DAT: 4 days after treatment; for desiccation and defoliation effect, 7 DAT: 7 days after treatment; for desiccation and defoliation effect, 10 DAT: 10 days after treatment; for desiccation and defoliation effect, 16 DAT: 16 days after treatment. It counts as in vivo. On the procedure:
In 5100-ml plastic pots filled up with soil (clay loam), seed potatoes (variety: danshaku) were planted and cultivated in a greenhouse. When the foliage was fully developed, specifically, at 30 days after flowering, the test plants were treated with the predetermined effective dosage (expressed as the amounts of active ingredients in g/ha) of the composition of the present invention in a liquid form, and further cultivated in the greenhouse. In the period from 4 days to 16 days after the treatment, the desiccation effect was surveyed and the herbicidal effect was evaluated according to the criterion described below.
Regarding the criterion for evaluating the desiccation and defoliation effect, the extent of desiccation and defoliation was graded from 0% (no effect) to 100% (completely desiccated).

Turning to `Cc1nn(-c2cc(CC(Cl)C(=O)O)c(Cl)cc2F)c(=O)n1C(F)F` (stereo not shown) [Carfentrazone], where the note is “dosage 32 g.a.i./ha”, the “desiccation and defoliation effect, 4 DAT” value was 18%; the “desiccation and defoliation effect, 7 DAT” value came out at 22%; the “desiccation and defoliation effect, 10 DAT” value was 33%; the “desiccation and defoliation effect, 16 DAT” value was 40%. For the setting “dosage 64 g.a.i./ha”, the “desiccation and defoliation effect, 4 DAT” value stood at 45%; the “desiccation and defoliation effect, 7 DAT” value is 52%; the “desiccation and defoliation effect, 10 DAT” value is 58%; the “desiccation and defoliation effect, 16 DAT” value is on record as 70%.
As for `CCOC(=O)COc1cc(-c2nn(C)c(OC(F)F)c2Cl)c(F)cc1Cl` [Pyraflufen-ethyl], under “dosage 10 g.a.i./ha”, the “desiccation and defoliation effect, 4 DAT” value is given as 38%; the “desiccation and defoliation effect, 7 DAT” value is 42%; the “desiccation and defoliation effect, 10 DAT” value is 45%; the “desiccation and defoliation effect, 16 DAT” value is on record as 58%. Further, where the note is “dosage 20 g.a.i./ha”, the “desiccation and defoliation effect, 4 DAT” value came out at 48%; the “desiccation and defoliation effect, 7 DAT” value amounted to 50%; the “desiccation and defoliation effect, 10 DAT” value amounted to 55%; the “desiccation and defoliation effect, 16 DAT” value came out at 68%.
